Assay results taken from patent US11179412B2, “Methods of treating conditions involving elevated inflammatory response” (University of Pittsburgh—Of the Commonwealth System of …, priority 2017, dated 2021).
Counter-ions that a name gives are not always drawn.

System: STING activation (IFNβ release) in iBMDMs
Assay: IFNβ release ELISA after STING ligand (or LPS) stimulation, iBMDMs
Format: cell-based, mouse
Settings: iBMDMs; 3′3′-cGAMP 10 μg/ml, 16 hours; compound 10 μM
Description: Commercially available enzyme-linked immunosorbent assay (ELISA) kits were used to measure the concentrations of mouse IFNβ (Thermo Fisher Scientific) or human IFNβ (Thermo Fisher Scientific) in culture medium according to the manufacturer's instructions. […]

Row | Compound | fold increase in IFN-β release [fold] | 3′3′-cGAMP-induced IFNβ release
1 | 6H05 | 1.18 | –
2 | O=C(O)C(Cc1ccccc1[N+](=O)[O-])=NNc1nc(-c2ccc(Cl)c(Cl)c2)cs1 (mixture of isomers) [4EGI-1] | 4.14 | –
3 | C[C@H]1COC2(CCN(c3nc(=O)c4cc(C(F)(F)F)cc([N+](=O)[O-])c4s3)CC2)O1 (racemic) [BTZ043 Racemate] | 0.69 | –
4 | N[C@@H]1C[C@H]1c1ccccc1 (racemic) [Tranylcypromine (2-PCPA) HCl, Tranylcypromine] | 1.17 | –
5 | COc1cc2c(cc1O)CC[C@@H]1[C@@H]2CC[C@]2(C)[C@@H](O)CC[C@@H]12 [2-Methoxyestradiol (2-MeOE2), 2-Methoxyestradiol] | 2.62 | –
6 | O=[N+]([O-])C=Cc1ccc2c(c1)OCO2 [3,4-Methylenedioxy-β-nitrostyrene] | 0.26 | –
7 | O=C(O)c1ccc(N2C(=O)/C(=C\c3ccc(-c4ccc([N+](=O)[O-])cc4)o3)C=C2c2ccccc2)cc1 [4E1 RCat] | 2.36 | –
8 | CC(C)N(CCC(c1ccccc1)c1cc(CO)ccc1O)C(C)C (stereo not shown) [5-hydroxymethyl Tolterodine] | 1.10 | –
9 | C=CCNC1=C2C[C@@H](C)C[C@H](OC)[C@H](O)[C@@H](C)/C=C(\C)[C@H](OC(N)=O)[C@@H](OC)/C=C\C=C(/C)C(=O)NC(=CC1=O)C2=O [17-AAG (Tanespimycin), Tanespimycin] | 1.53 | –
10 | CN1CCc2cc3c(cc2[C@H]1[C@@H]1OC(=O)c2c1ccc1c2OCO1)OCO3 [(+)-Bicuculline] | 1.26 | –
11 | Cl.NCc1c[nH]c(=S)n1[C@@H]1CCc2c(F)cc(F)cc2C1 [(R)-Nepicastat HCl] | 2.13 | –
12 | C[C@H](Oc1cc(-c2cnn(C3CCNCC3)c2)cnc1N)c1c(Cl)ccc(F)c1Cl [(S)-crizotinib] | 3.05 | –
13 | N#Cc1c(O)c2c(-c3ccc(-c4ccccc4O)cc3)csc2[nH]c1=O [A-769662] | 2.13 | –
14 | CC1(C)CCC(CN2CCN(c3ccc(C(=O)NS(=O)(=O)c4ccc(NCC5CCOCC5)c([N+](=O)[O-])c4)c(Oc4cnc5[nH]ccc5c4)c3)CC2)=C(c2ccc(Cl)cc2)C1 [ABT-199 (GDC-0199)] | 1.78 | –
15 | CC1(C)CCC(c2ccc(Cl)cc2)=C(CN2CCN(c3ccc(C(=O)NS(=O)(=O)c4ccc(N[C@H](CCN5CCOCC5)CSc5ccccc5)c(S(=O)(=O)C(F)(F)F)c4)cc3)CC2)C1 [ABT-263 (Navitoclax), Navitoclax] | 1.27 | –
16 | CCN(CC)C(=O)c1ccc(C2=CC3(CCNCC3)Oc3cccc(O)c32)cc1 [ADL5859 HCl] | 0.95 | –
17 | O=C(c1ccc(F)cc1)N1CCC[C@H](c2nc(-c3ccc(F)cc3)no2)C1 [ADX-47273] | 1.72 | –
18 | CN(C)Cc1ccc(-c2nc3cccc4c3n2CCNC4=O)cc1 [AG-14361] | 2.41 | –
19 | Cc1ccccc1C(C(=O)NC1CCCCC1)N(C(=O)Cn1ccnc1C)c1cccc(F)c1 (stereo not shown) [AGI-5198] | 1.13 | –
20 | O=C(Nc1cccc(C(F)(F)F)c1)Nc1cc(S(=O)(=O)NC2CC2)ccc1-c1ccsc1 [AGI-6780] | 2.14 | –
21 | CN1CCCCC1Cn1cc(C(=O)c2cc([N+](=O)[O-])ccc2I)c2ccccc21 (stereo not shown) [AM1241] | 8.07 | promoted
22 | CC(=O)Nc1nc2c(Oc3cc(-c4ccc(C(F)(F)F)cc4)ncn3)cccc2s1 [AMG-517] | 1.18 | –

Row | Compound | fold increase in IFN-β release [fold] | 3′3′-cGAMP-induced IFNβ release
23 | C#CC[C@H](c1nc2cc(Cl)ccc2c(=O)n1Nc1ccccc1)N(CCCN)C(=O)c1cccc(Cl)c1F [ARQ 621] | 1.87 | –
24 | O=C1NC(=O)/C(=C/c2ccc(-c3ccc(F)cc3O)o2)S1 [AS-252424] | 6.84 | promoted
25 | Cc1cc2c(C(C)C)c(O)c(O)c(C=O)c2c(O)c1-c1c(C)cc2c(C(C)C)c(O)c(O)c(C=O)c2c1O [AT101] | 0.13 | –
26 | CCNC(=O)c1noc(-c2cc(C(C)C)c(O)cc2O)c1-c1ccc(CN2CCOCC2)cc1 [AUY922 (NVP-AUY922)] | 0.93 | –
27 | C=CC(=O)Nc1cccc(Nc2nc(Nc3ccc(OCCOC)cc3)ncc2F)c1 [AVL-292] | 0.16 | –
28 | C[C@@H]1COCCN1c1cc(C2(S(C)(=O)=O)CC2)nc(-c2cccc3[nH]ccc23)n1 [AZ20] | 0.32 | –
29 | COc1cc(N2CCN(C)CC2)ccc1Nc1nccc(-c2cn(C)c3cnccc23)n1 [AZ191] | 2.01 | –
30 | COc1cc(OC2CCN(C)CC2)ccc1Nc1ncc2c(n1)n(C1CCCC1)c(=O)n2C [AZ 3146] | 0.10 | –
31 | CC(=O)Nc1cccc2c1c(Sc1ccc(Cl)cc1)c(C)n2CC(=O)O [AZD1981] | 3.11 | –
32 | COC1CCN(C(=O)c2cc(Cc3n[nH]c(=O)c4ccccc34)ccc2F)CC1 [AZD2461] | 2.12 | –
33 | COc1cc(CCc2cc(NC(=O)c3ccc(N4CC(C)NC(C)C4)cc3)n[nH]2)cc(OC)c1 (stereo not shown) [AZD4547] | 0.35 | –
34 | Cc1cc([C@@H](C)Nc2ccccc2C(=O)O)c2nc(N3CCOCC3)cc(=O)n2c1 [AZD6482] | 4.47 | –
35 | CN(C)C(=O)c1ccc(S(=O)(=O)c2ccc(NC(=O)[C@@](C)(O)C(F)(F)F)c(Cl)c2)cc1 [AZD7545] | 3.45 | –
36 | NC(=O)Nc1cc(-c2cccc(F)c2)sc1C(=O)N[C@H]1CCCNC1 [AZD7762] | 0.45 | –
37 | C=CC(=O)Nc1cc(Nc2nccc(-c3cn(C)c4ccccc34)n2)c(OC)cc1N(C)CCN(C)C [AZD9291] | 0.85 | –
38 | NC(=O)c1ncn([C@@H]2O[C@H](CO)[C@@H](O)[C@H]2O)c1N [Acadesine] | 1.02 | –
39 | COc1ccc2cccc(CCNC(C)=O)c2c1 [Agomelatine] | 0.97 | –
40 | Oc1ncnc2[nH]ncc12 [Allopurinol] | 3.15 | –
41 | CCOC(=O)[C@H]1O[C@@H]1C(=O)N[C@@H](CC(C)C)C(=O)NCCC(C)C [Aloxistatin] | 0.31 | –
42 | Cc1c(-c2ccnn2C)cc(C(=O)NCc2ccc(S(C)(=O)=O)cn2)c(=O)n1-c1cccc(C(F)(F)F)c1 [Alvelestat (AZD9668), Alvelestat] | 0.27 | –
43 | CCOC(=O)C1=C(COCCN)NC(C)=C(C(=O)OC)C1c1ccccc1Cl (stereo not shown) [Amlodipine] | 1.46 | –
44 | COc1cc(F)c(C(C)C)cc1-c1ccc(C(F)(F)F)cc1CN1C(=O)O[C@H](c2cc(C(F)(F)F)cc(C(F)(F)F)c2)[C@@H]1C [Anacetrapib (MK-0859), Anacetrapib] | 2.12 | –

Row | Compound | fold increase in IFN-β release [fold] | 3′3′-cGAMP-induced IFNβ release
45 | CC(C)(C#N)c1cc(Cn2cncn2)cc(C(C)(C)C#N)c1 [Anastrozole] | 0.98 | –
46 | COc1ccc(C(=O)N2CCCC2=O)cc1 [Aniracetam] | 1.02 | –
47 | N#CC1(c2ccc(NC(=O)c3cccnc3NCc3ccncc3)cc2)CCCC1 [Apatinib] | 0.26 | –
48 | O=c1cc(-c2ccc(O)cc2)oc2cc(O)cc(O)c12 [Apigenin] | 0.44 | –
49 | COc1ccc(-n2nc(C(N)=O)c3c2C(=O)N(c2ccc(N4CCCCC4=O)cc2)CC3)cc1 [Apixaban] | 2.83 | –
50 | O=C1C(=O)N(Cc2ccc(Cl)c(Cl)c2)c2ccccc21 [Apoptosis Activator 2] | 0.17 | –
51 | C[C@@H](O[C@H]1OCCN(Cc2n[nH]c(=O)[nH]2)[C@H]1c1ccc(F)cc1)c1cc(C(F)(F)F)cc(C(F)(F)F)c1 [Aprepitant] | 0.76 | –
52 | O=C(O)c1cccc(-c2noc(-c3ccccc3F)n2)c1 [Ataluren (PTC124), Ataluren] | 1.74 | –
53 | CN(C)C(=O)Nc1cccc(-c2ccc(N(C)C)cc2)c1 [Atglistatin] | 0.91 | –
54 | CC(C)c1c(C(=O)Nc2ccccc2)c(-c2ccccc2)c(-c2ccc(F)cc2)n1CC[C@@H](O)C[C@@H](O)CC(=O)[O-].CC(C)c1c(C(=O)Nc2ccccc2)c(-c2ccccc2)c(-c2ccc(F)cc2)n1CC[C@@H](O)C[C@@H](O)CC(=O)[O-].[Ca+2] [Atorvastatin Calcium] | 1.45 | –
55 | CC(=O)OCOC(=O)CN(CC(=O)OCOC(C)=O)c1ccccc1OCCOc1ccccc1N(CC(=O)OCOC(C)=O)CC(=O)OCOC(C)=O [BAPTA-AM] | 0.52 | –
56 | CC[C@@H]1C(=O)N(C)c2cnc(Nc3ccc(C(=O)NC4CCN(C)CC4)cc3OC)nc2N1C1CCCC1 [BI 2536] | 0.45 | –
57 | CC(C)CCN1c2nc(Nc3cc(F)c(O)c(F)c3)ncc2N(C)C(=O)C1C (stereo not shown) [BI-D1870] | 0.79 | –
58 | C/C(=C\C(=O)Nc1ccccc1C(=O)O)c1ccc2ccccc2c1 [BIBR 1532] | 2.10 | –
59 | COc1ccc2c(c1)c(CC(=O)N1CCOCC1)c(C)n2C(=O)c1ccc(Cl)cc1 [BML-190] | 0.35 | –
60 | COc1ccnc2[nH]cc(C(=O)C(=O)N3CCN(C(=O)c4ccccc4)C[C@H]3C)c12 [BMS-378806] | 1.70 | –
61 | Cn1c(N2CCCCS2(=O)=O)nc(C(=O)NCc2ccc(F)cc2)c(O)c1=O [BMS-707035] | 1.59 | –
62 | O=C(Oc1cc(S(=O)(=O)c2ccccc2)ccc1[N+](=O)[O-])c1ccc(Cl)cc1 [BTB06584] | 3.11 | –
63 | O=C(Nc1cccc(Nc2ncc(Br)c(NCCc3cnc[nH]3)n2)c1)N1CCCC1 [BX-912] | 1.86 | –
64 | CNC(=O)[C@H](Cc1ccccc1)NC(=O)[C@H](CC(C)C)[C@H](CSc1cccs1)C(=O)NO [Batimastat (BB-94), Batimastat] | 1.20 | –
65 | Cc1c(-c2ccc(O)cc2)n(Cc2ccc(OCCN3CCCCCC3)cc2)c2ccc(O)cc12 [Bazedoxifene HCl] | 0.15 | –
